Holding throughout (assay type): cell-based
Test [1] has as its system H526 cell line. The test can be described thus: Cell viability assay for NCI-H526 cell line (EZ-Cytox). Particulars: Homo sapiens, NCI-H526, 120 h; H526 cells, 3-fold dilutions 3000 nM to 0.46 nM, 5 days. As to the method:
(1) Culture of NCI-H526 Cell Line
(2) Treatment of Compounds of the Present Invention and Method of Cell Viability Assay
After treating the compound to each well to make the total volume of 200 μL, it was cultured in a CO2 incubator (Thermo Fisher Science, Cat. No. 4111) for 5 days.
The absorbance of the completely cultured sample was measured by setting the wavelength of a plate reader (BMG Labtech, CLARIOstar Plus) to […], and was measured after shaking for 3 minutes in a plate reader before measurement.
In Table 3, Activity represents IC50 value of each Exemplary Compound treatment group to H526 cell line (A: <30 nM, B: <50 nM, C: <100 nM, D: <200 nM, E: <400 nM).

Test [2] has as its system MRC-5 cell line. In words: Cell viability assay for MRC-5 cell line (EZ-Cytox cytotoxicity experiment). Particulars: Homo sapiens, MRC5, 120 h, MRC-5 normal cell line, 5 days. As to the method: 4. Cell Viability Assay for MRC-5 Cell Line
(1) Culture of MRC-5 Cell Line
Passage of cultured cells was maintained within P15.
(2) Treatment of Compounds of the Present Invention
Then, it was cultured in 37° C.
(3) Cytotoxicity Experiment
CO2 incubator for 4 hours.

The target in test [3] is T1, PLK1 (Homo sapiens, UniProt P53350).
T1 construct: endogenous in cells; host or cells: HeLa LgBit (Plk1-HiBit KI): HeLa stably expressing LgBit, with HiBit knocked in at the endogenous Plk1 locus by CRISPR/Cas9
T1 sequence (P53350 whole entry): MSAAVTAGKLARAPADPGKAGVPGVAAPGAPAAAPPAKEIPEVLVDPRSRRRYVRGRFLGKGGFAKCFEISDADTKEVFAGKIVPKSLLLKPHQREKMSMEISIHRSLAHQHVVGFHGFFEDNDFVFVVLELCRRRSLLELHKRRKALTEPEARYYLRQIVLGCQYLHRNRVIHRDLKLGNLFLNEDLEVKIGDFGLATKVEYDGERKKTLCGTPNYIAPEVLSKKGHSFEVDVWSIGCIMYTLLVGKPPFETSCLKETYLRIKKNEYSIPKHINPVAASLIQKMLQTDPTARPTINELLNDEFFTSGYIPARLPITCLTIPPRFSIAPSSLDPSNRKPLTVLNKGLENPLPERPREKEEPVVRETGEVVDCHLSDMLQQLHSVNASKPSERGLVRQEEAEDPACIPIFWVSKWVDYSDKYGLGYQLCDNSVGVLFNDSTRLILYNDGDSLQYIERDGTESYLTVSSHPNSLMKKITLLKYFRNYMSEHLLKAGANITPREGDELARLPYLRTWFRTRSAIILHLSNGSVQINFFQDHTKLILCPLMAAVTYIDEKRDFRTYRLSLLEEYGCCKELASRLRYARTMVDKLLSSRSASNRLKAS
In words: Luciferase assay for PLK1 in HeLa LgBit (Plk1-HiBit KI) cell line. Particulars: compound 300 nM, luminescence after 9 hours. On the procedure: 2. Luciferase Assay for PLK1
(1) Preparation and Culture of HeLa LgBit (Plk1-HiBit KI) Cell Line
A HeLa cell line in which the LgBit vector was transfected and expressed stably was prepared. Then, after constructing gRNA and donor to express the HiBit amino acid sequence behind the C-terminal of the Plk1 gene, which was inherent in the cell, it was inserted into the cell together with a vector capable of expressing CRISPR/Cas9. Only the cells in which the insertion was completed and knock-in had progressed were selected, sub-cultured and used.
(2) Treatment of Compounds of the Present Invention and Method of Luciferase Assay
In the case of HeLa LgBit (Plk1-HiBit KI), the compounds were treated after being released after thymidine block, and the process was as follows. Thymidine (Sigma-Aldrich Cat. No. T9250-5G) was completely dissolved in DW and used in the experiment. For thymidine block, the products were treated with 2 mM of thymidine and then incubated for 24 hours. For release and chemical treatment, the medium was suctioned and washed with 1×PBS. TrypLE™ was added and incubated in 37° C. CO2 incubator for 5 min. Cells neutralized by adding complete media were counted through a counter. For each well of a 96-well culture plate (SPL), 3.3×10^4 cells and a total medium volume of 150 μL were seeded and incubated in a CO2 incubator.
Each cell line was incubated in a CO2 incubator for 18 hours, and Endurazine was added to each well to make up 4% of the total volume. After adding the compound of the present invention in a 96-well white plate (SPL) to a concentration of 300 nM, the wavelength of the plate reader (BMG Labtech, CLARIOstar Plus) was set to […], and then the luminescence was tracked in real time.
In Table 2, Activity represents the ratio of the luminescence value of each Exemplary Compound treatment group to DMSO treatment group (+++: <0.3, ++<0.6, +<0.7).

Setting [4] is: highest concentration 10000 nM, N.D. = no cytotoxicity until 10 μM, read-out: Activity: IC50 value to MRC-5 cell line, N.D. cells.

This is an account of results in patent publication US20250101025A1, “NOVEL PLK1 DEGRADATION INDUCING COMPOUND” (UPPTHERA, INC., priority 2021, published 2025).

Where two headings read alike, the source gives them in different places.

As to `COc1cc(C(=O)NN2CCC(N3CC4(CCN(c5ccc(NC6CCC(=O)NC6=O)cc5F)CC4)C3)CC2)ccc1Nc1ncc2c(n1)N(C(C)C)CC(F)(F)C(=O)N2C` (stereo not drawn) [Compound 32, 4-((7,7-difluoro-9-isopropyl-5-methyl-6-oxo-6,7,8,9-tetrahydro-5H-pyrimido[4,5-b][1,4]diazepin-2-yl)amino)-N-(4-(7-(4-((2,6-dioxopiperidin-3-yl)amino)-2-fluorophenyl)-2,7-diazaspiro[3.5]nonan-2-yl)piperidin-1-yl)-3-methoxybenzamide], the IC50 in test [1] is under 0.05 µM; in test [2] (setting [4]), over 10000 nM. For the same compound, in test [3], the “Activity: ratio of the luminescence value of each Exemplary Compound treatment group to DMSO treatment group” value (shortened to “Activity: ratio”) is “++ (++<0.6)”.

Regarding `COc1cc(C(=O)NN2CCC(CCN3CCN(c4cccc(C(=O)NC5CCC(=O)NC5=O)c4)CC3)C2)ccc1Nc1ncc2c(n1)N(C1CCCC1)CC(F)(F)C(=O)N2C` (stereo not drawn) [Compound 11, 4-((9-cyclopentyl-7,7-difluoro-5-methyl-6-oxo-6,7,8,9-tetrahydro-5H-pyrimido[4,5-b][1,4]diazepin-2-yl)amino)-N-(3-(2-(4-(3-((2,6-dioxopiperidin-3-yl)carbamoyl)phenyl)piperazin-1-yl)ethyl)pyrrolidin-1-yl)-3-methoxybenzamide], the IC50 in test [1] is under 0.03 µM; in test [2] (setting [4]) it was over 10000 nM. Moreover, the “Activity: ratio” value in test [3] is recorded as “++ (++<0.6)”.

Turning to `COc1cc(C(=O)NC2CCN(C(=O)CCN3CCN(c4ccc(NC5CCC(=O)NC5=O)cc4)CC3)CC2)ccc1Nc1ncc2c(n1)N(C1CCCC1)CC(F)(F)C(=O)N2C` (stereo not drawn) [Compound 13, 4-((9-cyclopentyl-7,7-difluoro-5-methyl-6-oxo-6,7,8,9-tetrahydro-5H-pyrimido[4,5-b][1,4]diazepin-2-yl)amino)-N-(1-(3-(4-(4-((2,6-dioxopiperidin-3-yl)amino)phenyl)piperazin-1-yl)propanoyl)piperidin-4-yl)-3-methoxybenzamide], the IC50 in test [1] is under 0.03 µM; in test [2] (setting [4]), over 10000 nM. In addition, the “Activity: ratio” value in test [3] is listed as “+++ (+++: <0.3)”.

Take `COc1cc(C(=O)NN2CCC(CN3CCN(c4c(F)cc(NC5CCC(=O)NC5=O)cc4F)CC3)CC2)ccc1Nc1ncc2c(n1)N(C(C)C)CC(F)(F)C(=O)N2C` (stereo not drawn) [Compound 18, 4-((7,7-difluoro-9-isopropyl-5-methyl-6-oxo-6,7,8,9-tetrahydro-5H-pyrimido[4,5-b][1,4]diazepin-2-yl)amino)-N-(4-((4-(4-((2,6-dioxopiperidin-3-yl)amino)-2,6-difluorophenyl)piperazin-1-yl)methyl)piperidin-1-yl)-3-methoxybenzamide]: the results for the IC50 in test [1] and in test [2] (setting [4]) were under 0.03 µM and over 10000 nM, respectively. Moreover, in test [3], the “Activity: ratio” value is “+ (+<0.7)”.

For `COc1cc(C(=O)NC2CC3(CCN(CC4CCN(c5ccc(OC6CCC(=O)NC6=O)cc5)CC4)CC3)C2)ccc1Nc1ncc2c(n1)N(C(C)C)CC(F)(F)C(=O)N2C` (stereo not drawn) [Compound 36, 4-((7,7-difluoro-9-isopropyl-5-methyl-6-oxo-6,7,8,9-tetrahydro-5H-pyrimido[4,5-b][1,4]diazepin-2-yl)amino)-N-(7-((1-(4-((2,6-dioxopiperidin-3-yl)oxy)phenyl)piperidin-4-yl)methyl)-7-azaspiro[3.5]nonan-2-yl)-3-methoxybenzamide], the IC50 in test [1] is under 0.03 µM; in test [2] (3-fold dilutions 10000 nM to 1.52 nM, Exemplary Compounds, numeric values, read-out: Activity: IC50 value (nM) to MRC-5 cell line) it was 9800 nM. Further, the “Activity: ratio” value in test [3] is recorded as “+++ (+++: <0.3)”.
